Data reported in patent US7166296B2, “Pharmaceutical formulations and ligands for use therein; mimetics for UEA-1” (Sarlan, Ltd., priority 2001, dated 2007).
In brackets after ≈: the same amount, converted by molar mass. Non-standard residues stand in square brackets, D forms with d. Residues, ends and D or L forms follow the SMILES beside them. *: point of attachment. Galloyl = O=C(c1cc(O)c(O)c(O)c1)*

Key:
[1] = system: UEA-1 binding sites on Caco-2 cell membrane preparations; experiment: Single tier competition assay: inhibition of biotinylated UEA-1 binding, compound and biotinylated UEA-1 incubated together; design: species or system human; settings: for Av % Inhibition / Avg % Inhibtion: Single Tier Assay; for Av % Inhibition: library MSI 22; for Avg % Inhibtion: library MSI 26
Description: (§1) The epithelial cell binding ability of compounds and mixtures obtained from synthetic combinatorial libraries was determined by competition assays. These assays were set up to measure the inhibition of binding of biotinylated UEA-1 to membrane preparations of the epithelial cell line Caco-2 (colon carcinoma cells-2), by compounds and mixtures of the combinatorial libraries. This cell line is a conventional model for epithelial cells.
(§2) Two competition inhibition assays were used in this case, namely single tier and two tier assays. These assays differed from each other in that in the single tier assay, the mixtures/compounds and the biotinylated UEA-1 were incubated together with the Caco-2 cell membrane preparations, while in case of the two-tier assay, the mixture/compounds were allowed to incubate alone with the cell membranes in the absence of biotinylated UEA-1, which was added in the next step. Addition of the extra step in the two-tier assay was to ensure that the compounds inhibiting the binding of biotinylated UEA-1 to the Caco-2 cell membranes were doing so by themselves binding to surface receptors on the Caco-2 cells and not to the biotinylated UEA-1. Each assay will be described in detail.
(§3) • 1. Confluent Caco-2 cell monolayers (grown in 75 cm^2 flasks for up to 1 week at 37° C. and 5% CO2) were washed twice in Dulbecco's PBS (DPBS). • 2. Cell monolayers were treated with 10 mM EDTA-DPBS for 5–10 min at 37° C. and cells were harvested by centrifugation at 1000 rpm for 5 min. • 3. Cells were washed 3 times in DPBS. • 4. […] The cells were homogenised for 30 sec. • 6. The homogenates were centrifuged in hard walled tubes at 40,000 rpm for 45 min at 4° C. • 7. […] The supernatant was removed and stored on ice. The procedure was repeated adding the second supernatant to the first. • 8. The protein concentration was determined using e.g. a Bio-Rad protein assay. • 9. All fractions were stored at −80° C. prior to use. Single Tier Assays: • 1. 96-well microtiter plates were coated with membrane preparations of Caco-2 cells either by allowing them to incubate on the plates for 2½ hours at room temperature or by incubating them overnight at 4° C. 100 μl of 10 μg/ml (in 0.05 M carbonate buffer, pH 9.6) of membrane preparation was added to each well. • 2. The plates were flicked out, patted dry and blocked with bovine serum albumin (BSA)/DPBS (200 μl/well) for 1 to 4 hours at room temperature after which they were washed three times in water. • 3. […] Control wells were also set up in which the Caco-2 cell membrane preparations were incubated with unconjugated UEA-1. […] Following overnight incubation the plates were washed thoroughly (3–6 times). The plates were flicked out, patted dry and biotinylated UEA-1 was detected with commercial Streptavidin conjugated to horseradish peroxidase (HRP) (CalBiochem). […] The plates were left to incubate for an hour at room temperature. • 6. The plates were then washed 3–6 times and the biotin-streptavidin binding was detected by adding an HRP substrate OPD (orthophenyl diamine) to each well. 100 μl/well of this substrate at a final concentration of 1.6 mg/ml was added to each well. Before adding to the wells, this substrate was activated by addition of 50 μl of 3% H2O2 per plate and the reaction was allowed to develop in the dark. • 7. The reaction was stopped by adding 50 μl of 4 N H2SO4 to each well after approximately 5–10 minutes or when sufficient colour had developed. The OD490 (absorbance at 490 nm) of each well was measured using a conventional 96 well plate reading spectrophotometer. Two Tier Assays: • 1. 96 well plates were coated with Caco-2 cell membrane preparations in the same manner as described in the single tier assay. • 2. […] 100 μl at these final concentrations were added to each well. • 4. The plates were then left to incubate overnight, a step that would allow the mixtures and compounds to interact with the Caco-2 cell membranes without the presence of the competitor (biotinylated UEA-1) itself. • 5. […]

[2] = system: UEA-1 binding sites on Caco-2 cell membrane preparations; experiment: Two tier competition assay: compound incubated alone with membranes, biotinylated UEA-1 added in next step; design: species or system human; settings: for Avg % Inhib / Av % Inhibition / Avg % Inhibition: Two Tier Assay; for Avg % Inhib: library TP1012; for Av % Inhibition: library MSI 22; for Avg % Inhibition: library MSI 26
Description: as §1, §2, §3

[3] = library MSI 27, read-out: Single Tier Assay IC50
[4] = library MSI 27, read-out: Two Tier Assay IC50
[5] = Table 8, galloyl constructs, read-out: IC 50 (uM) 1st tier (converted)
[6] = Table 8, galloyl constructs, read-out: IC 50 (uM) 2nd tier

Compound	IC50 [1, 3] [µM]	IC50 [2, 4] [µM]	IC 50 (ug/ml) 1st tier ([1]; Table 8, galloyl constructs) [µg/mL]	IC50 [1, 5] [µM]	IC 50 (ug/ml) 2nd tier ([2]; Table 8, galloyl constructs) [µg/mL]	IC50 [2, 6] [µM]	also measured
CCOc1cc(C(=O)NCCCCC(NC(=O)C(CCCCNC(=O)c2cc(OCC)c(OCC)c(OCC)c2)NC(=O)C(CCCCNC(=O)c2cc(OCC)c(OCC)c(OCC)c2)NC(C)=O)C(N)=O)cc(OCC)c1OCC (centres unmarked) [Cpd 51]	217	217					
COc1cc(C(=O)NCCCCC(NC(C)=O)C(N)=O)cc(OC)c1OC (centres unmarked) [Cpd 12]	655	655					
CNC[C@H](Cc1ccc(F)cc1)N(C)C[C@H](Cc1ccc(F)cc1)NC(=O)Cc1ccc(Cl)c(Cl)c1 [compound 141]							Avg % Inhib ([2]; 50 μg/ml): 41.43%; Avg % Inhib ([2]; 250 μg/ml): 72.64%
COc1cc(C(=O)NCCCCC(NC(C)=O)C(N)=O)cc(OC)c1O (centres unmarked) [Cpd 9]	340	275					Single Tier Assay IC50 ([1]; library MSI 27): 125.00 µg/mL; Two Tier Assay IC50 ([2]; library MSI 27): 101.20 µg/mL
COc1ccc(C(=O)NCCCC[C@@H](NC(=O)[C@@H](CCCCNC(=O)c2ccc(OC)c(OC)c2)NC(=O)[C@@H](CCCCNC(=O)c2ccc(OC)c(OC)c2)NC(=O)c2ccc(OC)c(OC)c2)C(N)=O)cc1OC [Cpd 42]	101	108					Single Tier Assay IC50 ([1]; library MSI 27): 107.00 µg/mL; Two Tier Assay IC50 ([2]; library MSI 27): 113.80 µg/mL
NC(=O)C(CNC(=O)C(CNC(=O)c1cc(O)c(O)c(O)c1)NC(=O)c1cc(O)c(O)c(O)c1)NC(=O)C(CNC(=O)c1cc(O)c(O)c(O)c1)NC(=O)c1cc(O)c(O)c(O)c1 (centres unmarked) [MSI 34 1π5]			0.5 (≈ 0.566 µM)	0.5	1 (≈ 1.13 µM)	1	
CCCCC(CNC)N(C)CC(CC1CCCCC1)NC(=O)c1cc(O)c(O)c(O)c1 (centres unmarked) [compound 86]							Avg % Inhib ([2]; 50 μg/ml): 61.61%; Avg % Inhib ([2]; 250 μg/ml): 76.23%
NC(=O)[C@H](CNC(=O)c1cc(O)c(O)c(O)c1)NC(=O)c1cc(O)c(O)c(O)c1 [MSI 34 #1]			1 (≈ 2.45 µM)	4	0.8 (≈ 1.96 µM)	2	
CNC[C@@H](Cc1ccc2ccccc2c1)N(C)C[C@H](NC(=O)c1cc(O)c(O)c(O)c1)C(C)C [D-Napala, D-Val, Gallic Acid]							Av % Inhibition ([1]; 62.5 μg/ml): 4.7%; Av % Inhibition ([1]; 250 μg/ml): 26.8%; Av % Inhibition ([2]; 62.5 μg/ml): 24.2%; Av % Inhibition ([2]; 250 μg/ml): 46.9%
CC(=O)N[C@H](CCCCNC(=O)c1cc(O)c(O)c(O)c1)C(=O)N[C@H](CCCCNC(=O)c1cc(O)c(O)c(O)c1)C(=O)N[C@H](CCCCNC(=O)c1cc(O)c(O)c(O)c1)C(=O)N[C@H](CCCCNC(=O)c1cc(O)c(O)c(O)c1)C(=O)N[C@H](CCCCNC(=O)c1cc(O)c(O)c(O)c1)C(=O)N[C@H](CCCCNC(=O)c1cc(O)c(O)c(O)c1)C(=O)N[C@H](CCCCNC(=O)c1cc(O)c(O)c(O)c1)C(N)=O [MSI 30 #14] (Ac-[dK](Galloyl)[dK](Galloyl)[dK](Galloyl)[dK](Galloyl)[dK](Galloyl)[dK](Galloyl)[dK](Galloyl)-NH2)			17 (≈ 8.41 µM)	8	9 (≈ 4.45 µM)	4	
CC(=O)NC(CCNC(=O)c1cc(O)c(O)c(O)c1)C(=O)NC(CCNC(=O)c1cc(O)c(O)c(O)c1)C(=O)NC(CCNC(=O)c1cc(O)c(O)c(O)c1)C(N)=O (centres unmarked) [MSI 34 #14]			2 (≈ 2.45 µM)	2	1 (≈ 1.23 µM)	1	
CC(=O)NC(CCCCNC(=O)c1cc(O)c(O)c(O)c1)C(N)=O (centres unmarked) [Cpd 14]	382	270	72 (≈ 212 µM)	54	211 (≈ 622 µM)	160	Single Tier Assay IC50 ([1]; library MSI 27): 129.70 µg/mL; Two Tier Assay IC50 ([2]; library MSI 27): 91.52 µg/mL
COc1ccc(C(=O)NCCCCC(NC(=O)C(CCCCNC(=O)c2ccc(OC)c(OC)c2)NC(C)=O)C(N)=O)cc1OC (centres unmarked) [Cpd 34]	189	135					Single Tier Assay IC50 ([1]; library MSI 27): 121.40 µg/mL; Two Tier Assay IC50 ([2]; library MSI 27): 87.01 µg/mL
NC(=O)C(CCCCNC(=O)c1cc(O)cc(O)c1)NC(=O)C(CCCCNC(=O)c1cc(O)cc(O)c1)NC(=O)c1cc(O)cc(O)c1 (centres unmarked) [Cpd 32]	367	367					
CCCCCCCCCCCCOC(=O)c1cc(O)c(O)c(O)c1 [Lauryl gallate, reference compound]							Avg % Inhibtion ([1]; 62.5 μg/ml): 39.1%; Avg % Inhibtion ([1]; 250 μg/ml): 22.5%; Avg % Inhibition ([2]; 62.5 μg/ml): 20.4%; Avg % Inhibition ([2]; 250 μg/ml): 47.9%
NC(=O)C(Cc1ccc(NC(=O)c2cc(O)c(O)c(O)c2)cc1)NC(=O)C(Cc1ccc(NC(=O)c2cc(O)c(O)c(O)c2)cc1)NC(=O)C(Cc1ccc(NC(=O)c2cc(O)c(O)c(O)c2)cc1)NC(=O)c1cc(O)c(O)c(O)c1 (centres unmarked) [MSI 34 #20]			2 (≈ 1.8 µM)	2	6 (≈ 5.4 µM)	5	
NC(=O)C(CCCNC(=O)c1cc(O)c(O)c(O)c1)NC(=O)c1cc(O)c(O)c(O)c1 (centres unmarked) [MSI 34 #3]			2 (≈ 4.59 µM)	4	0.7 (≈ 1.61 µM)	2	
NC(=O)C(Cc1ccc(NC(=O)c2cc(O)c(O)c(O)c2)cc1)NC(=O)C(Cc1ccc(NC(=O)c2cc(O)c(O)c(O)c2)cc1)NC(=O)c1cc(O)c(O)c(O)c1 (centres unmarked) [MSI 34 #12]			6 (≈ 7.52 µM)	8	4 (≈ 5.01 µM)	5	
NC(=O)C(CNC(=O)c1cc(O)c(O)c(O)c1)NC(=O)C(CNC(=O)c1cc(O)c(O)c(O)c1)NC(=O)c1cc(O)c(O)c(O)c1 (centres unmarked) [MSI 34 #9]			0.6 (≈ 0.929 µM)	0.9	0.5 (≈ 0.775 µM)	0.8	
CC(=O)N[C@H](CCCCNC(=O)c1cc(O)c(O)c(O)c1)C(=O)N[C@H](CCCCNC(=O)c1cc(O)c(O)c(O)c1)C(=O)N[C@H](CCCCNC(=O)c1cc(O)c(O)c(O)c1)C(=O)N[C@H](CCCCNC(=O)c1cc(O)c(O)c(O)c1)C(N)=O [MSI 39 #12] (Ac-[dK](Galloyl)[dK](Galloyl)[dK](Galloyl)[dK](Galloyl)-NH2)			8 (≈ 6.78 µM)	7	3 (≈ 2.54 µM)	2	
CCOc1cc(C(=O)NCCCCC(NC(C)=O)C(N)=O)cc(OCC)c1OCC (centres unmarked) [Cpd 11]	590	590					
CCCC[C@@H](CNC)N(C)C[C@H](CC1CCCCC1)NC(=O)c1cc(O)c(O)c(O)c1 [compound 96]							Avg % Inhib ([2]; 50 μg/ml): 42.93%; Avg % Inhib ([2]; 250 μg/ml): 65.78%
CNC[C@H](Cc1ccc(F)cc1)N(C)C[C@H](Cc1ccc(F)cc1)NC(=O)Cc1cccc(C(F)(F)F)c1 [compound 144]							Avg % Inhib ([2]; 50 μg/ml): 42.26%; Avg % Inhib ([2]; 250 μg/ml): 66.71%
CCCC[C@H](CNC)N(C)C[C@H](CC1CCCCC1)NC(=O)c1cc(O)c(O)c(O)c1 [compound 90]							Avg % Inhib ([2]; 50 μg/ml): 53.66%; Avg % Inhib ([2]; 250 μg/ml): 69.94%
CNC[C@H](CC(C)C)N(C)C[C@H](Cc1ccccc1)NC(=O)c1cc(O)c(O)c(O)c1 [compound 125]							Avg % Inhib ([2]; 50 μg/ml): 61.02%; Avg % Inhib ([2]; 250 μg/ml): 77.78%
CCCC[C@@H](CNC)N(C)C[C@@H](CC1CCCCC1)NC(=O)c1cc(O)c(O)c(O)c1 [compound 92]							Avg % Inhib ([2]; 50 μg/ml): 54.8899%; Avg % Inhib ([2]; 250 μg/ml): 67.7%
